The values below come from patent US12326385B2, “Cell-permeable fluorogenic fluorophores” (MAX-PLANCK-GESELLSCHAFT ZUR FÖRDERUNG DER WISSENSCHAFTEN E. …, priority 2018, dated 2025).

Data set [1] relates to U2OS FlpIn Halo-SNAP-NLS expressing cells. The data set can be described thus: No-wash live-cell confocal imaging, nuclear versus cytosol signal. Conditions: for signal and background in no-wash live-cell imaging: no washing; for Fnuc./Fcyt.: average ratio between nuclear signal (U2OS FlpIn Halo-SNAP-NLS expressing cells) and cytosol signal (normal U2OS cell), ± s.e.m. It counts as cell-based. The source says:
Self-labeling protein tags such as SNAP-tag and HaloTag are an efficient approach to attach synthetic fluorophores to proteins in living cells. The main challenge when using these tags for live-cell imaging is the low cell permeability of most fluorescent probes used for labeling and high background signal resulting from their unspecific binding. SNAP-tag fusion proteins can be specifically labeled with different fluorophores using appropriate O^6-benzlyguanine derivatives. A 6-TAMRA based probe (150) for SNAP-tag has been previously introduced for live-cell imaging, but its low cell-permeability and lack of fluorogenicity requires the use of high concentrations (5 μM) and repeated washing steps to remove excess and non-specifically bound probe. To address these problem, the inventors coupled fluorophores 132-135 to O^6-benzylguanine to obtain probes 152, 154, 156, and 158. […] The inventors then examined the performance of probes 150, 152, 154, 156, and 158 in live-cell imaging, in which U2OS cells stably expressing a nuclear localized SNAP-Halo fusion protein were co-cultured with regular U2OS cells not expressing any protein tags. […] Furthermore, the kinetics of labeling of nuclear localized SNAP-tag with MaP555-SNAP were much faster than those of control […]. The inventors then prepared the corresponding 6-TAMRA-based probes 151, 153, 155, 157, and 159 for HaloTag. As for SNAP-tag, the probe with the largest enhancement in absorbance (16-fold) and fluorescence intensity (35-fold) in in vitro assays was based on the N,N-dimethylsulfamide derivative 159 (abbreviated as MaP555-Halo in the following). […] The excellent performance of MaP555-SNAP and MaP555-Halo in live-cell imaging experiments support the inventors' assumption that establishing a dynamic equilibrium between the fluorescent zwitterion and the more hydrophobic spirolactam enables the generation of highly cell-permeable and fluorogenic probes for live-cell imaging.
Generation of U2OS FlpIn Halo-SNAP-NLS Cell Lines
The Flp-In™ System (ThermoFisher Scientific) was used to generated U2OS FlpIn Halo-SNAP-NLS expressing cells. pcDNA5-FRT-Halo-SNAP-NLS and pOG44 were co-transfected into the host cell line U2OS FLpIn (Malecki et al. Molecular and Cellular Biology 26, 4642 (2006)). Homologous recombination between the FRT sites in pcDNA5-FRT-Halo-SNAP-NLS and on the host cell chromosome, catalysed by the Flp recombinase expressed from pOG44, produced the U2OS FlpIn Halo-SNAP-NLS stably expressing cells.
Live-Cell Confocal Imaging
U2OS FlpIn Halo-SNAP-NLS expressing cells were grown in 96-well plate (Thermos Fisher) with optical bottom at 37° C. in a humidified 5% (vol/vol) CO2 environment. 50-500 nM probes and 2 μM verapamil were added and incubated for 1 h in DMEM media (Evrogen) containing 10% FBS. The cells were directly used to image without washing. Meanwhile, another group was imaged after being washed 2 times for 5 min with 1× phosphate buffered saline (PBS, pH 7.4) and DMEM supplemented with 10% FBS. Imaging was performed using Leica TCS SP8 confocal microscope. TMR- and Rhodamine B—, and Rhodamine 110-based probes were excited at 540 nm and the fluorescence signal was collected from 560-700 nm. Semi-Rhodamine-based probes were excited at 650 nm and the fluorescence signal was […] from 670-760 nm. Images were processed with Fiji (http://fiji.sc/wiki/index.php/Fiji) to obtain MIP (maximum intensity projections)

A short description of data set [2]: UV-Vis and fluorescence spectroscopy of free dye or probe in buffer or SDS. Type of data set: physicochemical. The following applies: for Φ / ε^SDS: 0.1% SDS in HEPES buffer (pH 7.3); for ε: HEPES buffer (pH 7.3). As for the experimental part: UV-Vis and Fluorescence Spectroscopy
Spectroscopy was performed using 96-well plate (Thermo Fisher) with optical bottom. All measurements were taken at ambient temperature (25±2° C.). Absorption and fluorescence spectra were recorded on Spark® microplate reader (Tecan). Maximum absorption wavelength (λabs), and maximum emission wavelength (λem) were taken in 10 mM HEPES, pH 7.3 buffer unless otherwise noted; reported values for ε are averages (n=3). Normalized spectra are shown for clarity.
(§1) SDS (10% in 10 mM HEPES) was added with dilution of 100 folds as a control group. Absorbance and fluorescence measurements were performed in 96-well plate (Thermos Fisher) with optical bottom.

In data set [3] the test system is SNAP-Halo-tag. The data set can be described thus: Increase in absorbance and fluorescence on binding to SNAP-HaloTag protein in vitro. The following applies: for Φ / ε^protein / λabs / λem: binding with SNAP-Halo-tag; for F/F0: ± s.e.m. It counts as biochemical. As for the experimental part:
Measurement of Increase in Absorbance and Fluorescence.
SNAP-HaloTag protein were used as a 85 μM-200 μM solution in 75 mM NaCl, 50 mM TRIS-HCl, pH 7.4 with 50% v/v glycerol (TBS-glycerol). SNAPTag and HaloTag based fluorogenic probes were diluted to 1.0-2.0 μM in 10 mM HEPES, pH 7.3. Then an aliquot of SNAPTag/HaloTag protein (1.5-2.0 equiv) was added and the resulting mixture was incubated until consistent absorbance signal was observed (˜60 min).
as §1

[4] abbreviates: ratio of fluorescence intensities at 580 nm in the presence and absence of SNAP-Halo-tag.
Where [5] appears, read: upon binding to SNAP-tag, in vitro.

Marks after values point to notes of the source that are not given here.

In the case of `CN1CCc2cc3c(cc21)[Si](C)(C)c1cc2c(cc1C31OC(=O)c3ccc(C(=O)NCCOCCOCCCCCCCl)cc31)CCN2C` [compound 37, reference compound], in data set [1] (U2OS cells), the “signal and background in no-wash live-cell imaging” value was “relatively high background signal”. The Fnuc./Fcyt. in data set [1] is on record as 6.7 ± 1.5^f. In addition, in data set [2], the Φ is 0.25, the “ε^SDS” value is reported as 85,000^c M^−1cm^−1 and the ε is reported as 38,000 M^−1cm^−1. Moreover, in data set [3], the Φ came out at 0.27, the “ε^protein” value is recorded as 83,000 M^−1cm^−1, the λabs was determined as 695 nm and the λem stood at 718 nm. For the same compound, the “fluorogenicity on binding to tag or target protein” value in data set [3] (in vitro) is given as “only modest fluorogenicity”. The F/F0 in data set [3] (ratio of fluorescence intensities at 720 nm in the presence and absence of SNAP-Halo-tag) is reported as 7.5 ± 0.2^e.

For the compound `CN(C)c1ccc2c(-c3cc(C(=O)NCc4ccc(COc5nc(N)nc6[nH]cnc56)cc4)ccc3C(=O)[O-])c3ccc(=[N+](C)C)cc-3oc2c1` [compound 150, reference compound], in data set [1] (U2OS cells), the “signal and background in no-wash live-cell imaging” value is on record as “barely detectable signal”. Further, in data set [1], the Fnuc./Fcyt. is given as 1.8 ± 0.1^f. For the same compound, in data set [2], the Φ came out at 0.61, the “ε^SDS” value is given as 82,000 M^−1cm^−1 and the ε was 22,000 M^−1cm^−1. Besides, in data set [3], the Φ stood at 0.42, the “ε^protein” value is listed as 66,000 M^−1cm^−1, the λabs was 555 nm and the λem was 578 nm. The F/F0 in data set [3] (setting [4]) was 7.9 ± 0.2^e.

As for `CN(C)c1ccc2c(-c3cc(C(=O)NCCOCCOCCCCCCCl)ccc3C(=O)O)c3ccc(=[N+](C)C)cc-3oc2c1` [compound 151, reference compound], in data set [1], the Fnuc./Fcyt. was 9.4 ± 1.7^f. In data set [2], the Φ worked out at 0.68, the “ε^SDS” value is 87,000 M^−1cm^−1 and the ε is on record as 58,000 M^−1cm^−1. In addition, in data set [3], the Φ came to 0.51, the “ε^protein” value is recorded as 82,000 M^−1cm^−1, the λabs came to 555 nm and the λem stood at 578 nm. Further, in data set [3] (setting [4]), the F/F0 was 1.8 ± 0.1^e.

`CN(C)c1ccc2c(c1)Oc1cc(N(C)C)ccc1C21c2cc(C(=O)NCc3ccc(COc4nc(N)nc5[nH]cnc45)cc3)ccc2C(=O)N1C#N` [compound 152]: in data set [1], the Fnuc./Fcyt. is listed as 8.1 ± 0.9^f. In addition, in data set [2], the Φ came out at 0.58, the “ε^SDS” value is 82,000 M^−1cm^−1 and the ε is recorded as 18,000 M^−1cm^−1. Further, in data set [3], the Φ is 0.33, the “ε^protein” value is 68,000 M^−1cm^−1, the λabs was determined as 558 nm and the λem was 580 nm. Further, the F/F0 in data set [3] (setting [4]) was 18 ± 2.6^e.

Take `CN(C)c1ccc2c(c1)Oc1cc(N(C)C)ccc1C21c2cc(C(=O)NCCOCCOCCCCCCCl)ccc2C(=O)N1C#N` [compound 153]: the Fnuc./Fcyt. in data set [1] was 10 ± 0.4^f. For the same compound, in data set [2], the Φ is on record as 0.71, the “ε^SDS” value is 79,000 M^−1cm^−1 and the ε was 15,000 M^−1cm^−1. For the same compound, in data set [3], the Φ is on record as 0.46, the “ε^protein” value is given as 71,000 M^−1cm^−1, the λabs is 557 nm and the λem was determined as 580 nm. Moreover, the F/F0 in data set [3] (setting [4]) is recorded as 7.3 ± 0.8^e.

For the compound `CN(C)c1ccc2c(c1)Oc1cc(N(C)C)ccc1C21c2cc(C(=O)NCc3ccc(COc4nc(N)nc5[nH]cnc45)cc3)ccc2C(=O)N1S(C)(=O)=O` [compound 154], the Fnuc./Fcyt. in data set [1] is reported as 7.9 ± 0.9^f. In addition, in data set [2], the Φ was determined as 0.65, the “ε^SDS” value is listed as 86,000 M^−1cm^−1 and the ε is listed as 15,000 M^−1cm^−1. Also, in data set [3], the Φ is on record as 0.38, the “ε^protein” value was 65,000 M^−1cm^−1, the λabs is 558 nm and the λem came to 580 nm. Also, the F/F0 in data set [3] (setting [4]) is given as 9.7 ± 0.1^e.

Take `CN(C)c1ccc2c(c1)Oc1cc(N(C)C)ccc1C21c2cc(C(=O)NCCOCCOCCCCCCCl)ccc2C(=O)N1S(C)(=O)=O` [compound 155]: the Fnuc./Fcyt. in data set [1] is listed as 12 ± 2.6^f. Moreover, in data set [2], the Φ turned out to be 0.66, the “ε^SDS” value is listed as 95,000 M^−1cm^−1 and the ε is 40,000 M^−1cm^−1. In addition, in data set [3], the Φ is given as 0.56, the “ε^protein” value is reported as 85,000 M^−1cm^−1, the λabs was 559 nm and the λem came to 580 nm. Further, the F/F0 in data set [3] (setting [4]) is 3.7 ± 0.4^e.

On to `CN(C)c1ccc2c(c1)Oc1cc(N(C)C)ccc1C21c2cc(C(=O)NCc3ccc(COc4nc(N)nc5[nH]cnc45)cc3)ccc2C(=O)N1S(N)(=O)=O` [compound 156], for which, in data set [1], the Fnuc./Fcyt. is 9.8 ± 0.8^f. In data set [2], the Φ worked out at 0.62, the “ε^SDS” value was 89,000 M^−1cm^−1 and the ε was 9,800 M^−1cm^−1. In data set [3], the Φ was 0.46, the “ε^protein” value was 57,000 M^−1cm^−1, the λabs came to 557 nm and the λem was found to be 578 nm. The F/F0 in data set [3] (setting [4]) is on record as 13 ± 2.4^e.

With `CN(C)c1ccc2c(c1)Oc1cc(N(C)C)ccc1C21c2cc(C(=O)NCCOCCOCCCCCCCl)ccc2C(=O)N1S(N)(=O)=O` [compound 157], in data set [1], the Fnuc./Fcyt. is 14 ± 0.7^f. In data set [2], the Φ came out at 0.65, the “ε^SDS” value is 91,000 M^−1cm^−1 and the ε is 9,600 M^−1cm^−1. Moreover, in data set [3], the Φ is recorded as 0.56, the “ε^protein” value was 87,000 M^−1cm^−1, the λabs was found to be 558 nm and the λem amounted to 580 nm. The F/F0 in data set [3] (setting [4]) is given as 19 ± 3.2^e.

As for `CN(C)c1ccc2c(c1)Oc1cc(N(C)C)ccc1C21c2cc(C(=O)NCc3ccc(COc4nc(N)nc5[nH]cnc45)cc3)ccc2C(=O)N1S(=O)(=O)N(C)C` [compound 158], in data set [1], the Fnuc./Fcyt. was 15 ± 2.9^f. For the same compound, the “nuclei to cytosol signal ratio (Fnuc/Fcyt)” value in data set [1] (no-wash live-cell imaging, U2OS cells, 250 nM for MaP555-SNAP and MaP700-Halo) came to 15. The “intracellular kinetics of labeling relative to control probe” value in data set [1] (nuclear localized SNAP-tag or HaloTag in U2OS cells) is recorded as “much faster”. In data set [2], the Φ is on record as 0.61, the “ε^SDS” value is 88,000 M^−1cm^−1 and the ε is 3,500 M^−1cm^−1. In data set [3], the Φ is 0.46, the “ε^protein” value is recorded as 54,000 M^−1cm^−1, the λabs amounted to 556 nm and the λem worked out at 576 nm. In data set [3] (setting [4]), the F/F0 is recorded as 21 ± 3.2^e. In data set [3] (setting [5]), the “increase in absorbance at 555 nm” value stood at 15 fold and the “increase in intensity of fluorescence emission at 580 nm” value amounted to 21 fold.
